ChEMBL document CHEMBL1201862, “PubChem BioAssay data set” (2004)
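Briefly, cells in 96-well plates were exposed to five compound concentrations for 48 h, and endpoints were estimated by linear interpolation. GI50 is the concentration that inhibits growth by half.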 Activity calls are given as the source filed them. Rule as the data show it: active = GI50 up to about 1.1 µM and inactive = higher.

Experiments:
Test in all cases: growth of human tumour cells (NCI), 48 h
MCF7 = tested on: MCF7
NCI-H522 = tested on: NCI-H522
UO-31 = tested on: UO-31
SK-MEL-28 = tested on: SK-MEL-28
KM12 = tested on: KM12
OVCAR-5 = tested on: OVCAR-5
A549 = tested on: A549
EKVX = tested on: EKVX
PC-3 = tested on: PC-3
SNB-75 = tested on: SNB-75
SF-295 = tested on: SF-295
HT-29 = tested on: HT-29
OVCAR-3 = tested on: OVCAR-3
TK-10 = tested on: TK-10
RXF 393 = tested on: RXF 393
MOLT-4 = tested on: MOLT-4
HOP-62 = tested on: HOP-62
SK-MEL-5 = tested on: SK-MEL-5
HL-60 = tested on: HL-60
RPMI-8226 = tested on: RPMI-8226

Compound | GI50 (MCF7) | GI50 (NCI-H522) | GI50 (UO-31) | GI50 (SK-MEL-28) | GI50 (KM12) | GI50 (OVCAR-5) | GI50 (A549) | GI50 (EKVX) | GI50 (PC-3) | GI50 (SNB-75) | GI50 (SF-295) | GI50 (HT-29) | GI50 (OVCAR-3) | GI50 (TK-10) | GI50 (RXF 393) | GI50 (MOLT-4) | GI50 (HOP-62) | GI50 (SK-MEL-5) | GI50 (HL-60) | GI50 (RPMI-8226)
Cc1ccc([C@@H]2[C@@H](C(=O)c3ccccn3)[C@H](c3ccc(C)cc3)C[C@](O)(c3ccccn3)[C@H]2C(=O)c2ccccn2)cc1 | 4.86 µM (inactive) | 32.8 µM (inactive) | 2.32 µM (inactive) | 6.11 µM (inactive) | 7.98 µM (inactive) | 8.93 µM (inactive) | 2.77 µM (inactive) | 0.728 µM (active) | 6.56 µM (inactive) | 3.33 µM (inactive) | 4.21 µM (inactive) | 2.97 µM (inactive) | 7.8 µM (inactive) | 6.05 µM (inactive) | 3.15 µM (inactive) | 2.07 µM (inactive) | 5.73 µM (inactive) | 3.71 µM (inactive) | 2.52 µM (inactive) | –
COc1ccc(N[C@H]([C@@H](c2ccccc2)[S+]([O-])c2ccc(C)cc2)C(F)(F)F)cc1 (stereo partly drawn) | 38.9 µM (inactive) | 56.5 µM (inactive) | 59.8 µM (inactive) | > 100 µM (inactive) | 33.4 µM (inactive) | 40.6 µM (inactive) | 32.7 µM (inactive) | 44 µM (inactive) | 21.1 µM (inactive) | 24.8 µM (inactive) | 82.8 µM (inactive) | 31.8 µM (inactive) | > 100 µM (inactive) | 74.1 µM (inactive) | 53.5 µM (inactive) | 34.9 µM (inactive) | – | 35.8 µM (inactive) | 19.1 µM (inactive) | –
Nc1ccc(-c2nnc(-c3c(Cl)c(Cl)c(Cl)c(Cl)c3-c3nc4cc(C(=O)c5ccccc5)ccc4[nH]3)o2)cc1 | 16 µM (inactive) | 13.5 µM (inactive) | 35.7 µM (inactive) | 28.5 µM (inactive) | 27.9 µM (inactive) | 37.9 µM (inactive) | 28.1 µM (inactive) | 28.6 µM (inactive) | 16.6 µM (inactive) | 24 µM (inactive) | 19.5 µM (inactive) | 20.5 µM (inactive) | 21 µM (inactive) | 27.5 µM (inactive) | 10.9 µM (inactive) | 15.9 µM (inactive) | 21.6 µM (inactive) | 11.1 µM (inactive) | – | 14.8 µM (inactive)
COc1ccccc1Cc1ccc(C2C=CC3(CC(=O)C=C3C)C(=O)C2)o1 (stereo not drawn) | 17.1 µM (inactive) | 16 µM (inactive) | 29.1 µM (inactive) | 34.4 µM (inactive) | 29 µM (inactive) | 50.8 µM (inactive) | 33.9 µM (inactive) | 34.8 µM (inactive) | 16.1 µM (inactive) | – | 22.1 µM (inactive) | 35.3 µM (inactive) | 10.2 µM (inactive) | 39.5 µM (inactive) | 17.4 µM (inactive) | 16 µM (inactive) | 15 µM (inactive) | 15.6 µM (inactive) | 17.7 µM (inactive) | 17.4 µM (inactive)
Cc1ccc(C(=O)O)c(/C=C2\Cc3cc(C)cc(C)c3C2=O)c1 | 69.3 µM (inactive) | > 100 µM (inactive) | 92.3 µM (inactive) | > 100 µM (inactive) | 65.2 µM (inactive) | – | 78.2 µM (inactive) | 66.7 µM (inactive) | 48.6 µM (inactive) | 63.5 µM (inactive) | > 100 µM (inactive) | > 100 µM (inactive) | 36 µM (inactive) | > 100 µM (inactive) | 67.3 µM (inactive) | 53.2 µM (inactive) | > 100 µM (inactive) | 35.7 µM (inactive) | 38.6 µM (inactive) | 73.6 µM (inactive)
Cc1ccc(S(=O)(=O)NC(=O)NC(C(=O)O)C(C)O)cc1 (stereo not drawn) | > 100 µM (inactive) | > 100 µM (inactive) | > 100 µM (inactive) | > 100 µM (inactive) | > 100 µM (inactive) | > 100 µM (inactive) | > 100 µM (inactive) | – | > 100 µM (inactive) | 33.3 µM (inactive) | > 100 µM (inactive) | > 100 µM (inactive) | – | > 100 µM (inactive) | > 100 µM (inactive) | > 100 µM (inactive) | > 100 µM (inactive) | > 100 µM (inactive) | > 100 µM (inactive) | > 100 µM (inactive)
COc1cc(C=O)cc(/C=N/c2ccccn2)c1O | 52.1 µM (inactive) | – | 3.34 µM (inactive) | 3.32 µM (inactive) | 24.5 µM (inactive) | 15.8 µM (inactive) | 32 µM (inactive) | 23.4 µM (inactive) | 3.64 µM (inactive) | 3.78 µM (inactive) | 5.47 µM (inactive) | 11.5 µM (inactive) | 19.8 µM (inactive) | 79.4 µM (inactive) | 1.56 µM (inactive) | 24.5 µM (inactive) | 16 µM (inactive) | 2.39 µM (inactive) | 33.4 µM (inactive) | 4.85 µM (inactive)
O=[N+]([O-])c1cc(C(F)(F)F)ccc1S(=O)(=O)N[C@@H]1CCCC[C@H]1NS(=O)(=O)c1ccc(C(F)(F)F)cc1[N+](=O)[O-] | 1.72 µM (inactive) | 2.45 µM (inactive) | 3.56 µM (inactive) | 5.55 µM (inactive) | 3.08 µM (inactive) | 56.2 µM (inactive) | 4.16 µM (inactive) | 6.5 µM (inactive) | 3.11 µM (inactive) | 1.83 µM (inactive) | 2.86 µM (inactive) | 3.37 µM (inactive) | 2.38 µM (inactive) | 11 µM (inactive) | 2.45 µM (inactive) | – | 7.1 µM (inactive) | 3.58 µM (inactive) | 1.39 µM (inactive) | –
N#CCCN(CCCN(CCCN(C(=O)Nc1ccccc1)c1ccccc1)C(=O)Nc1ccccc1)C(=O)Nc1ccccc1 | > 8.75 µM (inactive) | – | > 8.75 µM (inactive) | > 8.75 µM (inactive) | > 8.75 µM (inactive) | > 8.75 µM (inactive) | > 8.75 µM (inactive) | > 8.75 µM (inactive) | > 8.75 µM (inactive) | > 8.75 µM (inactive) | > 8.75 µM (inactive) | > 8.75 µM (inactive) | > 8.75 µM (inactive) | > 8.75 µM (inactive) | > 8.75 µM (inactive) | > 8.75 µM (inactive) | > 8.75 µM (inactive) | > 8.75 µM (inactive) | > 8.75 µM (inactive) | 3.44 µM (inactive)
Cc1nn(-c2ccccc2)c(C)c1/C=N/N=C1\S/C(=C\c2ccc(Cl)cc2)C(=O)N1c1ccccc1 | 17.3 µM (inactive) | – | > 100 µM (inactive) | > 100 µM (inactive) | 7.67 µM (inactive) | > 100 µM (inactive) | 10.7 µM (inactive) | > 100 µM (inactive) | > 100 µM (inactive) | 11.6 µM (inactive) | > 100 µM (inactive) | 16.6 µM (inactive) | > 100 µM (inactive) | 14.2 µM (inactive) | 12.6 µM (inactive) | 14.2 µM (inactive) | 20.1 µM (inactive) | > 100 µM (inactive) | 11.8 µM (inactive) | 26.4 µM (inactive)
CC1(C)[C@@H]2CC[C@]1(C)[C@H](OC(=O)/C=C/c1ccccc1)C2 | 16.7 µM (inactive) | 14.6 µM (inactive) | 19.2 µM (inactive) | 19 µM (inactive) | 20.8 µM (inactive) | 19.6 µM (inactive) | 30.8 µM (inactive) | 19.9 µM (inactive) | 23.4 µM (inactive) | 16.2 µM (inactive) | 18 µM (inactive) | 16.6 µM (inactive) | < 0.01 µM (active) | 36.9 µM (inactive) | 16.9 µM (inactive) | – | 30.2 µM (inactive) | 16.7 µM (inactive) | 18.4 µM (inactive) | –
C/C(=N\Nc1nc2ccccc2[nH]1)c1cccc[n+]1[O-] | > 100 µM (inactive) | > 100 µM (inactive) | 64.6 µM (inactive) | > 100 µM (inactive) | 44.7 µM (inactive) | 8.91 µM (inactive) | > 100 µM (inactive) | 3.03 µM (inactive) | > 100 µM (inactive) | – | 3.48 µM (inactive) | 32.1 µM (inactive) | 37.6 µM (inactive) | 67.1 µM (inactive) | 45.2 µM (inactive) | > 100 µM (inactive) | > 100 µM (inactive) | > 100 µM (inactive) | – | > 100 µM (inactive)
CNC(=O)c1ccc(C(=O)NCCCCCN(O)C(=O)CCC(=O)NCCCCCN(O)C(=O)CCC(=O)NCCCCCN(O)C(C)=O)c(O)c1O | 48.2 µM (inactive) | 60.1 µM (inactive) | 24.3 µM (inactive) | 42 µM (inactive) | 58.5 µM (inactive) | > 100 µM (inactive) | 54.7 µM (inactive) | – | 86.7 µM (inactive) | > 100 µM (inactive) | 42.6 µM (inactive) | 38.9 µM (inactive) | 8.57 µM (inactive) | 78.9 µM (inactive) | 32.3 µM (inactive) | – | 21.4 µM (inactive) | 33.7 µM (inactive) | 23.8 µM (inactive) | 38.5 µM (inactive)
FC(F)(Sc1ccccc1)c1nc2ccccc2o1 | 35.2 µM (inactive) | 34.6 µM (inactive) | 49 µM (inactive) | > 100 µM (inactive) | 57 µM (inactive) | 59.7 µM (inactive) | 30.1 µM (inactive) | – | 35.5 µM (inactive) | – | 48.5 µM (inactive) | 33.6 µM (inactive) | 34.4 µM (inactive) | 75.2 µM (inactive) | 28.5 µM (inactive) | 13.8 µM (inactive) | > 100 µM (inactive) | 50 µM (inactive) | – | 40.3 µM (inactive)
